Test results reported in ChEMBL document CHEMBL3885861, “Open TG-GATES”.

Species: Rattus norvegicus
Assay: Open TG-GATES - Regimen: Single
Format: toxicity, organism-based, Sprague-Dawley
Set-up: regimen Single, gender Male, age 6 weeks
Details: in vivo, po, 300 mg/kg, route gavage, dose level Middle; for APTT / Bas / Eos / Fbg / Hb / Ht / Lym / MCH / MCHC / MCV / Mono / Neu / PT / Plat / RBC / Ret / WBC: tissue Blood; for KIDNEY_L / KIDNEY_R / KIDNEY_TOTAL: tissue Kidney; for LIVER: tissue Liver; for A/G / ALP / ALT / AST / BUN / CRE / Ca / Cl / DBIL / GLC / IP / K / LDH / Na / PL / RALB / TBIL / TC / TG / TP / gamma-GTP: tissue Plasma

`CN/C(=N/CCSCc1nc[nH]c1C)NC#N` [CIMETIDINE] showed a TERMINAL_BW (3 h) of 213.9 g, an APTT (3 h) of 17.7 s and a Bas (3 h) of 0%. The Eos (3 h) was 0.8%, the Fbg (3 h) was 212 mg/dL and the Hb (3 h) was 12.6 g/dL. For the same compound, the Ht (3 h) was 37.5%, the Lym (3 h) was 77.6% and the MCH (3 h) was 21.5 pg. It also gave an MCHC (3 h) of 33.7%, an MCV (3 h) of 63.8 fL and a Mono (3 h) of 3%. For the same compound, the Neu (3 h) was 17.2%, the PT (3 h) was 12.8 s and the Plat (3 h) was 128.8 x10_4/uL. The RBC (3 h) was 587.2 x10_4/ul, the Ret (3 h) was 8.2% and the WBC (3 h) was 84.3 x10_2/uL. The KIDNEY_L (3 h) was 1 g, the KIDNEY_R (3 h) was 0.9 g and the KIDNEY_TOTAL (3 h) was 1.9 g. The LIVER (3 h) was 10.5 g, the A/G (3 h) was 1.6 and the ALP (3 h) was 1248.6 IU/L. It also gave an ALT (3 h) of 37.4 IU/L, an AST (3 h) of 68.6 IU/L and a BUN (3 h) of 10.8 mg/dL. It also gave a CRE (3 h) of 0.4 mg/dL, a Ca (3 h) of 10.7 mg/dL and a Cl (3 h) of 103.4 meq/L. For the same compound, the DBIL (3 h) was 0.072 mg/dL, the GLC (3 h) was 191.2 mg/dL and the IP (3 h) was 8.8 mg/dL. The K (3 h) was 4.1 meq/L, the LDH (3 h) was 155.6 IU/L and the Na (3 h) was 140.8 meq/L. It also gave a PL (3 h) of 158 mg/dL, an RALB (3 h) of 3.3 g/dL and a TBIL (3 h) of 0.1 mg/dL. It also gave a TC (3 h) of 83 mg/dL, a TG (3 h) of 57 mg/dL and a TP (3 h) of 5.4 g/dL. The gamma-GTP (3 h) was 1.4 IU/L, the TERMINAL_BW (6 h) was 209.1 g and the APTT (6 h) was 19.5 s. It also gave a Bas (6 h) of 0%, an Eos (6 h) of 1% and a Fbg (6 h) of 224 mg/dL. It also gave a Hb (6 h) of 13 g/dL, a Ht (6 h) of 37.3% and a Lym (6 h) of 72.4%. For the same compound, the MCH (6 h) was 21.6 pg, the MCHC (6 h) was 34.8% and the MCV (6 h) was 62.2 fL. The Mono (6 h) was 3.4%, the Neu (6 h) was 22.6% and the PT (6 h) was 13.4 s. It also gave a Plat (6 h) of 134.4 x10_4/uL, an RBC (6 h) of 600.8 x10_4/ul and a Ret (6 h) of 7.9%. For the same compound, the WBC (6 h) was 100.3 x10_2/uL, the KIDNEY_L (6 h) was 1 g and the KIDNEY_R (6 h) was 1 g. The KIDNEY_TOTAL (6 h) was 1.9 g, the LIVER (6 h) was 9.3 g and the A/G (6 h) was 1.7. It also gave an ALP (6 h) of 926.2 IU/L, an ALT (6 h) of 38.2 IU/L and an AST (6 h) of 68 IU/L. The BUN (6 h) was 8.4 mg/dL, the CRE (6 h) was 0.4 mg/dL and the Ca (6 h) was 10.4 mg/dL. It also gave a Cl (6 h) of 103.2 meq/L, a DBIL (6 h) of 0.068 mg/dL and a GLC (6 h) of 185 mg/dL. The IP (6 h) was 9.6 mg/dL, the K (6 h) was 3.8 meq/L and the LDH (6 h) was 148.6 IU/L. For the same compound, the Na (6 h) was 141 meq/L, the PL (6 h) was 138.2 mg/dL and the RALB (6 h) was 3.4 g/dL. For the same compound, the TBIL (6 h) was 0.1 mg/dL, the TC (6 h) was 70.2 mg/dL and the TG (6 h) was 60 mg/dL. For the same compound, the TP (6 h) was 5.5 g/dL, the gamma-GTP (6 h) was 1.4 IU/L and the TERMINAL_BW (9 h) was 208.3 g. For the same compound, the APTT (9 h) was 20.6 s, the Bas (9 h) was 0% and the Eos (9 h) was 0.8%. The Fbg (9 h) was 214.4 mg/dL, the Hb (9 h) was 12.6 g/dL and the Ht (9 h) was 36.5%. The Lym (9 h) was 80.2%, the MCH (9 h) was 21.6 pg and the MCHC (9 h) was 34.5%. It also gave an MCV (9 h) of 62.6 fL, a Mono (9 h) of 2.6% and a Neu (9 h) of 15.6%. For the same compound, the PT (9 h) was 13.9 s, the Plat (9 h) was 126.2 x10_4/uL and the RBC (9 h) was 583.4 x10_4/ul. For the same compound, the Ret (9 h) was 7.8%, the WBC (9 h) was 70.7 x10_2/uL and the KIDNEY_L (9 h) was 1 g. It also gave a KIDNEY_R (9 h) of 1 g, a KIDNEY_TOTAL (9 h) of 1.9 g and an LIVER (9 h) of 8.8 g. It also gave an A/G (9 h) of 1.7, an ALP (9 h) of 807.2 IU/L and an ALT (9 h) of 31 IU/L. The AST (9 h) was 58.6 IU/L, the BUN (9 h) was 9.8 mg/dL and the CRE (9 h) was 0.4 mg/dL. The Ca (9 h) was 10.3 mg/dL, the Cl (9 h) was 102 meq/L and the DBIL (9 h) was 0.068 mg/dL. It also gave a GLC (9 h) of 189.8 mg/dL, an IP (9 h) of 10.3 mg/dL and a K (9 h) of 3.9 meq/L. It also gave an LDH (9 h) of 115.6 IU/L, a Na (9 h) of 141 meq/L and a PL (9 h) of 136 mg/dL. The RALB (9 h) was 3.4 g/dL, the TBIL (9 h) was 0.1 mg/dL and the TC (9 h) was 72.4 mg/dL. For the same compound, the TG (9 h) was 36.4 mg/dL, the TP (9 h) was 5.5 g/dL and the gamma-GTP (9 h) was 1.6 IU/L. For the same compound, the TERMINAL_BW (24 h) was 223.6 g, the APTT (24 h) was 19.1 s and the Bas (24 h) was 0%. For the same compound, the Eos (24 h) was 0.8%, the Fbg (24 h) was 214.8 mg/dL and the Hb (24 h) was 13.5 g/dL. The Ht (24 h) was 40.7%, the Lym (24 h) was 82.2% and the MCH (24 h) was 21.5 pg. The MCHC (24 h) was 33.3%, the MCV (24 h) was 64.5 fL and the Mono (24 h) was 2.2%. For the same compound, the Neu (24 h) was 13.6%, the PT (24 h) was 12.7 s and the Plat (24 h) was 126.7 x10_4/uL. For the same compound, the RBC (24 h) was 631.2 x10_4/ul, the Ret (24 h) was 6.5% and the WBC (24 h) was 86.6 x10_2/uL. The KIDNEY_L (24 h) was 1 g, the KIDNEY_R (24 h) was 1 g and the KIDNEY_TOTAL (24 h) was 2 g. For the same compound, the LIVER (24 h) was 10.7 g, the A/G (24 h) was 1.6 and the ALP (24 h) was 1056 IU/L. For the same compound, the ALT (24 h) was 35.8 IU/L, the AST (24 h) was 67.8 IU/L and the BUN (24 h) was 15.4 mg/dL. For the same compound, the CRE (24 h) was 0.4 mg/dL, the Ca (24 h) was 10.9 mg/dL and the Cl (24 h) was 102.2 meq/L. For the same compound, the DBIL (24 h) was 0.09 mg/dL, the GLC (24 h) was 200.8 mg/dL and the IP (24 h) was 7.4 mg/dL. For the same compound, the K (24 h) was 3.9 meq/L, the LDH (24 h) was 183.4 IU/L and the Na (24 h) was 140.8 meq/L. For the same compound, the PL (24 h) was 159.8 mg/dL, the RALB (24 h) was 3.5 g/dL and the TBIL (24 h) was 0.2 mg/dL. The TC (24 h) was 77.8 mg/dL, the TG (24 h) was 94 mg/dL and the TP (24 h) was 5.6 g/dL. The gamma-GTP (24 h) was 1.6 IU/L.
